Measurements: US12390440B2, “Immunomodulating trifluoromethyl-aminal azalides” (Zoetis Services LLC, priority 2020, dated 2025)
Converted amounts (≈) assume the structure as drawn. “Also recorded” adds a separate entry of the source.

Key:
H. somni = experiment: MIC, H. somni
TLR4 = molecular target: T1, TLR4 (Bos taurus, UniProt Q9GL65); experiment: Drug/protein binding partner, SPR: TLR4; parameters: species or system bovine; details: PBMCs, Trachea
T1 sequence (Q9GL65 24-841): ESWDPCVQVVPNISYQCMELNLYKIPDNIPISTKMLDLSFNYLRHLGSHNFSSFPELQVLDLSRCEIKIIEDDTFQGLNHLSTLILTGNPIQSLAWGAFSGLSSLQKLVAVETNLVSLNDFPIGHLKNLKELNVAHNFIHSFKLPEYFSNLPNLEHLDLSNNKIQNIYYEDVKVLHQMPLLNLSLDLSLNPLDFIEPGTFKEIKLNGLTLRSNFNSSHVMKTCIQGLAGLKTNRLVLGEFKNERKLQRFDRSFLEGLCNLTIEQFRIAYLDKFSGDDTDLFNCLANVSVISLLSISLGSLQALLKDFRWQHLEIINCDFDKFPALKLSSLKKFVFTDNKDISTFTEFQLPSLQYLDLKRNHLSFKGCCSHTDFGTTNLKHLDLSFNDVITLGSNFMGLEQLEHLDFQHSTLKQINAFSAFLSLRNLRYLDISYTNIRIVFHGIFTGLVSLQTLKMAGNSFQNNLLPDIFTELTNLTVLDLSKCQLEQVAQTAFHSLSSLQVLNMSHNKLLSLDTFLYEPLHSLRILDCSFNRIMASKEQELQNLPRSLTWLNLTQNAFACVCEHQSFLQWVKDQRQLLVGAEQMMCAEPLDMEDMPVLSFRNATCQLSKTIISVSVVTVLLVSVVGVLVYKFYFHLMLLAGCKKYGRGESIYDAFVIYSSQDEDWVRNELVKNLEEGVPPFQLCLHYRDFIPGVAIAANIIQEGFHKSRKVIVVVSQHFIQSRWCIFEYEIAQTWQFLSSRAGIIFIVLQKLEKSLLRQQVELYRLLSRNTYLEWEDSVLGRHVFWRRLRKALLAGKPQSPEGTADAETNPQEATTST
Protocol: To further characterize the direct activity of the compounds of the invention, experiments to identify the drug's direct binding host partners(s) were performed with the aim of identifying the potential biological targets. Bovine primary cells (peripheral blood mononuclear cells [PBMCs] and polymorphonuclear cells [PMN/neutrophils]) and tissue (trachea, lung) protein homogenates were mixed with M9 and the macrolide, gamithromicin as a comparator. Tissue interactions were allowed to form using a heterogeneous assembly method (nematic protein organization technique, NPOT; Inoviem Scientific); and traditional western blots to identify native-structure proteins bound to the compound. Mass spectrometry analysis identified eight proteins involved in the interaction with M9 as compared to gamithromycin. The antibacterial macrolide gamithromycin was used as a comparator to differentiate specific binding to M9. These proteins were considered to be either direct binding partners of the drug or closely involved in the drug:target interaction (Table 6).
In order to add further clarity to binding partner identification, surface plasma resonance (SPR) technology was used. […]
KD is the equilibrium dissociation constant that was used to present the drug/target affinity. The identified targets associated with drug were measured by surface plasmon resonance (SPR) to define the KD.

[1] = test system: bovine respiratory disease (BRD); experiment: Natural bovine respiratory disease study; format: in vivo, beef calves; details: 14-day observation, dosed on arrival to feedlot
Protocol: The primary clinical endpoint for efficacy was treatment failure/success over a 14-day observation period. Clinically normal beef calves (150-200 kg) at moderate risk for BRD were dosed on arrival to the feedlot. Animals (N=114/group) received saline (T01), 5 mg/kg M9 (T02) or 10 mg/kg M9 (T03); or Zactran (T04). […] Bacterial isolates were collected at necropsy and MICs were evaluated (Table 4).

[2] = test system: M. haemolytica (strain: OSU-012103-BHI); experiment: Bovine M. haemolytica intratracheal lung challenge model
[3] = test system: bovine alveolar macrophages; experiment: Phospholipidosis assay (HCS LipidTox); format: cell-based; details: Bos taurus, Macrophage
Text: The second immunomodulation in vitro assay evaluated the potential for phospholipidosis with the compounds of the invention in bovine alveolar macrophages. The phospholipidosis assay is being used as a convenient method for the evaluation of cellular uptake. This assay utilized Invitrogen's commercially available HCS LipidTox detection kit with an Incucyte real time fluorescence reader to observe variations in EC50 and phospholipidosis profiles based on compound concentrations (Table 2). […] Murine intraperitoneal macrophages were also used in the same assay to evaluate species variability for potential correlation with mouse efficacy results. The combination of the bovine whole blood assay and phospholipidosis assays enabled rank ordering for progression into in vivo testing in the murine challenge model.

S. aureus = experiment: MIC, S. aureus; details: Staphylococcus aureus
P. multocida = experiment: Murine P. multocida intranasal challenge study, survival; format: in vivo; details: 32 mg/kg (T03) subcutaneous 18 hours after challenge, 5×10^3 CFU/mouse
Protocol: In one murine P. multocida intranasal challenge study, mice were administered tulathromycin (16 mg/kg; T02), M9 (32 mg/kg; T03), or ceftiofur (9 mg/kg; T04) by subcutaneous injection 18 hours after bacterial challenge (5×10^3 CFU/mouse) for lung tissue RNA sequence analysis. Survival at Day 7 was about 80%, 50%, and 90% for T02, T03, and T04, respectively, compared to placebo at 0%. Differential gene expression from total lung tissue RNA sequence analysis indicated at least 226 unique genes were up or down regulated (with significance) for T03. Output from ingenuity pathway analysis of these unique genes predicted major upstream regulators of the involved pathways. Data was analyzed based on the number of genes being modulated in the same direction that were associated with a given upstream regulator. An activation z-score of 2 or greater is considered significant and the direction change is indicated by + (activated) or − (inhibited). The top 5 pathways included: IL-9 signaling, glucocorticoid receptor signaling, prolactin signaling, JAK STAT signaling, and IL-17 signaling. The top 6 upstream regulators (activation z-score) included: lipopolysaccharide (−6.725), TNF (−4.669), IFNγ (−5.759), IL-1ß (−5.947), STAT1 (−2.787), and poly rI:rC-RNA (−5.289). Even though this study was run in the murine model, the top upstream regulators identified as being modulated by M9 include an almost ubiquitous overlap with the pathways identified in the natural disease study as being key mediators in BRD, and therefore is modulating highly relevant pathways in BRD pathobiology.

IL-6 = experiment: Bovine whole blood assay, IL-6; format: cell-based; details: Bos taurus, fresh whole bovine blood, LPS 1 μg/mL
Protocol: (protected from light) for 30 minutes.

CCCNC[C@]1(O)[C@H](C)O[C@@H](O[C@H]2[C@H](C)[C@@H](O[C@@H]3O[C@H](C)C[C@H](NC)[C@H]3O)[C@](C)(O)C[C@@H](C)CN[C@H](C)[C@@H](O)[C@](C)(O)[C@@H](CC)OC(=O)[C@@H]2C)C[C@@]1(C)OC [Example M9, (2R,3S,4R,5R,8R,10R,11R,12S,13S,14R)-2-ethyl-3,4,10-trihydroxy-13-(((2R,4R,5S,6S)-5-hydroxy-4-methoxy-4,6-dimethyl-5-((propylamino)methyl)-tetrahydro-2H-pyran-2-yl)oxy)-11-(((2S,3R,4S,6R)-3-hydroxy-6-methyl-4-(methylamino)tetrahydro-2H-pyran-2-yl)oxy)-3,5,8,10,12,14-hexamethyl-1-oxa-6-azacyclopentadecan-15-one]
MIC50 (H. somni): 32 µg/mL (≈ 40.4 µM) | MIC90 (H. somni): 32 µg/mL (≈ 40.4 µM) | Interaction KD (TLR4): Indirect | Percent failure ([1]; 5 mg/kg (T02)): 19.3% | Percent failure ([1]; 10 mg/kg (T03)): 8.8% | Mortality ([2]; T02: 10 mg/kg subcutaneous Day −1, M. haemolytica challenge Day 0): 1/6 | Mortality ([2]; T04: 10 mg/kg subcutaneous Day −1, no challenge): 0/6 | IL-6 levels ([2]; bovine M. haemolytica challenge): significantly reduced | CD163 expression ([2]; cattle, monocytes/macrophages in whole blood): suppressed; also recorded: mitigates the pathologic increase | EC50 [3]: 53.7 µM | MIC (S. aureus): 64 µg/mL (≈ 80.8 µM) | Survival at Day 7 (P. multocida): ~50% | IC50 (IL-6): > 250 µM
